# According to US20140343145A1, “RBP1 as a Molecular Biomarker for Predicting Survival and Response to Treatment in Glioma” (The Regents of the University of California, priority 2011, published 2014):
# Entries after “also recorded” stand apart in the source; their conditions may differ.
# What was measured:
# [1] = system: primary glioblastoma multiforme patients; test: Kaplan-Meier analysis of overall survival in the GBM Survival Cohort (124 primary glioblastoma patients) by RBP1 methylation and isotretinoin treatment; format: in vivo, human
# Text: FIGS. 10A-10B show the Kaplan-Meier analysis of overall survival (OS) in a cohort of 124 primary glioblastoma mulitforme patients with respect to RBP1 methylation and isotretinoin (ITR) treatment. FIG. 10A provides RBP1-unmethylated patients treated (solid, n=19) vs untreated with isotretinoin (dotted, n=83). FIG. 10B provides RBP1-methylated patients treated (solid, n=7) and untreated with isotretinoin (dotted, n=15). RBP1=retinol binding protein 1; WT=wild-type; MUT=mutant; ITR=isotretinoin.
# Within the 198-patient Total Cohort, 124 samples that were obtained from treatment-naïve primary GBM patients with detailed clinical information were retrospectively identified. Patients were treated with a combination of radiation (RT) and temozolomide (TMZ) after surgical resection (Stupp R, et al. N Engl J Med 2005; 352(10):987-96). Overall survival (OS) was defined as the date of diagnosis to date of death from any cause. For patients lost to follow-up without obtainable date of death, censoring date was last clinic visit or contact. If the last clinic or contact was after the Sep. 9, 2011 freeze date, the patient was censored at […]. […]
# Correlation between IDH1 mutation and RBP1 methylation was determined using the Spearman correlation test. […]
# [2] = system: unselected glioma patients; settings: patients not selected for any biomarker/mutation (Yung 1996); cited from earlier work
# [3] = system: patients with primary glioblastoma; test: Kaplan-Meier analysis of overall survival in a preliminary cohort of 414 primary glioblastoma patients, with or without upfront isotretinoin; format: in vivo, human
# Method: Survival for an unpublished preliminary cohort of 414 patients with primary glioblastoma were analyzed with Kaplan-Meier analysis. Survival curves for patients with wild-type or IDH1/2 mutant genotypes with or without upfront treatment with isotretinoin, in combination with standard-of-care debulking surgery, temozolomide, and radiation therapy, are shown. […] WT=wild-type, MUT=IDH1 MUT, ITR=isotretinoin (13-cis retinoic acid).
# Specifically, the median overall survival for IDH1 mutant glioblastoma patients treated with isotretinoin was 81 months as compared with 36 months for similar IDH1 mutant glioblastoma patients who were not treated with isotretinoin. […] Therefore, in some embodiments, the present invention is directed to methods of treating IDH1/IDH2 mutant gliomas in subjects, which comprise administering to the subjects having been diagnosed with an IDH1 and/or an IDH2 mutation and/or RBP1 promoter hypermethylation one or more retinoids.
compound,measurement,setting,value
"CC1=C(/C=C/C(C)=C/C=C/C(C)=C\C(=O)O)C(C)(C)CCC1 [isotretinoin, 13-cis retinoic acid]",median OS (overall survival),"[1]; RBP1-methylated primary GBM patients who received isotretinoin (n=7), untreated 36.7 months, P=0.53",82.5 months
same,median OS (overall survival),"[1]; RBP1-unmethylated primary GBM patients who received adjuvant isotretinoin with temozolomide (n=19), untreated 19.8 months, P=0.25",22.0 months
same,efficacy in unselected glioma patients,[2],little to only modest efficacy
same,median overall survival,"[3]; IDH1 mutant glioblastoma patients treated with isotretinoin, 36 months for similar patients not treated",81 months
same,"effect on overall survival, IDH1/IDH2 mutant glioblastoma","[3]; upfront isotretinoin with standard-of-care debulking surgery, temozolomide and radiation, patients with IDH1 or IDH2 mutant glioblastoma",significantly improve the overall survival; also recorded: significantly increased overall survival
same,"effect on overall survival, wild-type tumors","[3]; upfront isotretinoin with standard-of-care debulking surgery, temozolomide and radiation, patients with wild-type tumors (WT)",only modest increase in overall survival
